Numbering of substitutions follows the chain as printed. Like-named read-outs stand apart in the source and are kept apart here.

Consider 15 compounds from patent US8853219B2, “Compounds and compositions for cognition-enhancement, methods of making, and methods of treating” (NeuroSolis, Inc., priority 2010, dated 2014).

For series [1], the target named is T1, human muscarinic M1 receptors (Homo sapiens, UniProt P11229).
T1 construct: host or cells: A9L cells
T1 sequence (P11229 1-460): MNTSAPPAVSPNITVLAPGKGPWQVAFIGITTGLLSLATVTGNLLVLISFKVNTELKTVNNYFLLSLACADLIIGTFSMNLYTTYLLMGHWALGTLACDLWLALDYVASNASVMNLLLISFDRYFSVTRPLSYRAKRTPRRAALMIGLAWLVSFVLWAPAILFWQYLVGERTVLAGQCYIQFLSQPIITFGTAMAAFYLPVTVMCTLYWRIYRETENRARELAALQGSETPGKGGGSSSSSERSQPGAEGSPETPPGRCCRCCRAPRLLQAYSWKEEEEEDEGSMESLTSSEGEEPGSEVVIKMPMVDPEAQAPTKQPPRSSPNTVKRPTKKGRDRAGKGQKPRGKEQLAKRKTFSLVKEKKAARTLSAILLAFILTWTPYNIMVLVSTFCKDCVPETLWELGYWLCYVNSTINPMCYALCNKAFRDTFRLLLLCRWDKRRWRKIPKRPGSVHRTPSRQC
The series is described as follows: Stimulation of inositol phosphate production in A9L cells, human M1 (IPOne TR-FRET). The following applies: for huM1/A9L Smax: percentage of maximal stimulation by carbachol. It is filed as cell-based. The protocol: (§1) Muscarinic M1 and M3 agonist activity was evaluated by measuring the stimulation of inositol phosphate (IP) production in the presence of lithium chloride from A9L cells transfected with expression plasmids containing human muscarinic M1 and M3 receptors, respectively. The cell lines were a gift from Professor W Messer, and the methods were as described in Tejada F R et al. J. Med. Chem. 2006; 49: 7518-31 except that the assay was scaled down to run in 384 well plates, and IP was measured in the cell lysates using the non-isotopic IPOne TR-FRET assay (CIS-BIO, Inc).
(§2) Cells were grown to 90% confluence in 384 well hi-base plates (Greiner Bio-One), compounds were added at suitable concentrations in growth medium containing 10 mM LiCL, buffered with an extra 10 mM HEPES (pH7.4), and incubated for 60 minutes at 37° C. Cells were lysed and assayed for IP following the manufacturer's instructions.
(§3) The value for a full agonist is 100%, while partial agonists give values below 100%.
(In general: In TR-FRET formats the signal depends on donor and acceptor labels being close together.)

In series [2] the target is T2, human muscarinic M3 receptors (Homo sapiens, UniProt P20309).
T2 construct: host or cells: A9L cells
T2 sequence (P20309 whole entry): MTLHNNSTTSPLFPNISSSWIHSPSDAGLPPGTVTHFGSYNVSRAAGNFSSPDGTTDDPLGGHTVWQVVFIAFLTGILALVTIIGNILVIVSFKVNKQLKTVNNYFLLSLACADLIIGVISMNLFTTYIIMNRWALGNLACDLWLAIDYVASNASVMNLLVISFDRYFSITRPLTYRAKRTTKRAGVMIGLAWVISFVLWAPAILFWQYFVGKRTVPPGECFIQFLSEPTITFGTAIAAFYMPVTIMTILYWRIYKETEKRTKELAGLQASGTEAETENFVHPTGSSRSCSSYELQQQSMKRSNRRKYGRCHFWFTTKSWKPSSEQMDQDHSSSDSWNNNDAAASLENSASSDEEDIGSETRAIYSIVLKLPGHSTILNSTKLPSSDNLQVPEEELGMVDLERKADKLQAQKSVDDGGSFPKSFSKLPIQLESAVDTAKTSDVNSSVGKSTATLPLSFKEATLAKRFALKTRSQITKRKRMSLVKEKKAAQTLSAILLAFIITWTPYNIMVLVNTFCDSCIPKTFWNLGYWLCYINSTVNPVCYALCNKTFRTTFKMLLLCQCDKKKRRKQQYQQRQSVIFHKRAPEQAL
The series is described as follows: Stimulation of inositol phosphate production in A9L cells, human M3 (IPOne TR-FRET). It is filed as cell-based. The conditions noted are these: for huM3/A9L Smax: percentage of maximal stimulation by carbachol. The protocol:
as §1, §2, §3

The subject of series [3] is pooled male human liver microsomes. The series is described as follows: Metabolism by human liver microsomes. In kind it is in vitro ADME. The conditions noted are these: for Metabolism in human liver microsomes: 6 hours incubation; for Rate of metabolism, S- versus R-enantiomer: human liver microsomes, as also in rat liver microsomes and FMO Supersomes. The method, then:
Compounds were incubated with pooled male human liver microsomes (BD Biosciences, #452172) and an NADP-regenerating system in a phosphate buffer (pH 7.4) for a total of 6 hours. Aliquots were removed every 2 hours, and 1% formic acid was added to halt the reaction. Samples were centrifuged, filtered through 0.2 micron spinfilter and the amount of each compound in the supernatants was quantitated using LC/MS/MS.

In another series the target is T3, rat M1 receptors (Rattus norvegicus, UniProt P08482).
T3 construct: host or cells: Chinese Hamster Ovary cells (M1-CHO)
T3 sequence (P08482 1-460): T1 sequence (P11229 1-460) with A5V, T254S, P309S, R320K, A337G, I413V
The series is described as follows: PI turnover (inositol phosphate production) in M1-CHO cells. In kind it is cell-based. The following applies: M1 versus M3 cell lines. The protocol: The medium was changed to 70 μL/well of inositol-free DMEM containing 2 mM glutamine, 10% FBS and 10 μCi/ml of [3H]-inositol (PE:cat #NET114A250UC), incubated overnight as above, then 100 μL of a solution of the test compound in HBSS containing 10 mM LiCl and 20 mM HEPES, pH 7.4 was added, incubation was continued for 60 min under the above conditions, and the test was stopped by removing the test compound and replacing with 100 μL of 50 mM formic acid in water at 4° C.

Series [4] can be described thus: Blood and brain concentrations (rats) after oral gavage. In kind it is in vivo, rat. The method, then:
Long-Evans Hooded rats (Charles River: male, 250-350 g) were dosed with solutions of test compounds in PBS by oral gavage. At the desired time after dosing, the animals were anesthetized with isoflurane, and then euthanized by cervical dislocation. Blood was obtained by cardiac puncture, transferred to a 1.5 mL microcentrifuge tube containing 15U Heparin, and the plasma recovered after centrifugation. Brains were dissected, weighed, immediately chilled to 4° C., and homogenized using a PowerGen 125 homogenizer in five volumes of ice-cold 2% formic acid. Proteins were precipitated from plasma and brain homogenate with two and five volumes respectively of ice-cold 2% formic acid and clarified by centrifugation. The supernatant was ultra-filtered by centrifugation through a 3K MWCO spin column (Pall Life Sciences), following the manufacturer's instructions. The concentration of compound in the ultra-filtrate was subjected to reverse-phase liquid chromatography using a 150×2.1 mm Agilent C8 reverse-phase column on a Shimadzu Prominence LC, eluting the compounds with a gradient of 2% to 50% of acetonitrile+0.1% formic acid for compound MI-50,382, or an isocratic flow of 2% acetonitrile+0.1% formic acid for the rest of the compounds listed. The concentration of the compound in the column effluent was measured using an Applied Biosystems API-3200 triple quadrupole mass spectrometer equipped with an electrospray sample injection system. The counts of the characteristic parent and product ions of each test compound were converted to concentration units by comparison with a standard calibration curve.

In the case of `Cc1noc([C@H]2CCCNC2)n1` [Compound 3a, S-(+)-3-methyl-5-(piperidin-3-yl)-1,2,4-oxadiazole], in series [1], the “huM1/A9L ED50 relative to CCh” value is “+ (key: ++: potency > 10x CCh; +: potency 2-10x CCh; +/−: potency 0.5-2x CCh; −: potency < 0.5-0.1x CCh; −−: potency < 0.1x CCh; inactive: potency too low to determine)”. For the same compound, the “huM3/A9L ED50 relative to CCh” value in series [2] is “+/− (key: ++: potency > 10x CCh; +: potency 2-10x CCh; +/−: potency 0.5-2x CCh; −: potency < 0.5-0.1x CCh; −−: potency < 0.1x CCh; inactive: potency too low to determine)”. Further, in series [3], the “Metabolism in human liver microsomes” value is “metabolized significantly less in human liver microsomes than in rat liver microsomes” and the “Rate of metabolism, S- versus R-enantiomer” value is reported as “metabolized faster than the R-enantiomers”.
Consider `Cc1noc([C@@H]2CCCNC2)n1` [Compound 3b, R-(−)-3-methyl-5-(piperidin-3-yl)-1,2,4-oxadiazole], for which the “huM1/A9L ED50 relative to CCh” value in series [1] is “+/− (key: ++: potency > 10x CCh; +: potency 2-10x CCh; +/−: potency 0.5-2x CCh; −: potency < 0.5-0.1x CCh; −−: potency < 0.1x CCh; inactive: potency too low to determine)”. Moreover, in series [2], the “huM3/A9L ED50 relative to CCh” value was “− (key: ++: potency > 10x CCh; +: potency 2-10x CCh; +/−: potency 0.5-2x CCh; −: potency < 0.5-0.1x CCh; −−: potency < 0.1x CCh; inactive: potency too low to determine)”. For the same compound, in series [3], the “Metabolism in human liver microsomes” value was “metabolized significantly less in human liver microsomes than in rat liver microsomes”.
As for `[2H]C([2H])([2H])c1noc([C@H]2CCCNC2)n1` [Compound 7a, S-(+)-3-D3-methyl-5-(piperidin-3-yl)-1,2,4-oxadiazole], in series [1], the “huM1/A9L ED50 relative to CCh” value is “+/− (key: ++: potency > 10x CCh; +: potency 2-10x CCh; +/−: potency 0.5-2x CCh; −: potency < 0.5-0.1x CCh; −−: potency < 0.1x CCh; inactive: potency too low to determine)”. Besides, the “huM3/A9L ED50 relative to CCh” value in series [2] is “−− (key: ++: potency > 10x CCh; +: potency 2-10x CCh; +/−: potency 0.5-2x CCh; −: potency < 0.5-0.1x CCh; −−: potency < 0.1x CCh; inactive: potency too low to determine)”. Also, in series [3], the “Metabolism in human liver microsomes” value is on record as “metabolized significantly less in human liver microsomes than in rat liver microsomes” and the “Rate of metabolism, S- versus R-enantiomer” value is “metabolized faster than the R-enantiomers”.
Consider `[2H]C([2H])([2H])c1noc([C@@H]2CCCNC2)n1` [Compound 7b, R-(−)-3-D3-methyl-5-(piperidin-3-yl)-1,2,4-oxadiazole], for which the “huM1/A9L ED50 relative to CCh” value in series [1] was “+ (key: ++: potency > 10x CCh; +: potency 2-10x CCh; +/−: potency 0.5-2x CCh; −: potency < 0.5-0.1x CCh; −−: potency < 0.1x CCh; inactive: potency too low to determine)”. Moreover, the “huM3/A9L ED50 relative to CCh” value in series [2] is “+/− (key: ++: potency > 10x CCh; +: potency 2-10x CCh; +/−: potency 0.5-2x CCh; −: potency < 0.5-0.1x CCh; −−: potency < 0.1x CCh; inactive: potency too low to determine)”. Besides, in series [3], the “Metabolism in human liver microsomes” value is on record as “metabolized significantly less in human liver microsomes than in rat liver microsomes”.
For the compound `Cc1nsc(C2CCCNC2)n1.Cl` (stereo not drawn) [Compound 12a, 3-methyl-5-(piperidin-3-yl)-1,2,4-thiadiazole hydrochloride], in series [1], the “huM1/A9L ED50 relative to CCh” value is “+ (key: ++: potency > 10x CCh; +: potency 2-10x CCh; +/−: potency 0.5-2x CCh; −: potency < 0.5-0.1x CCh; −−: potency < 0.1x CCh; inactive: potency too low to determine)”. In series [2], the “huM3/A9L ED50 relative to CCh” value is “+ (key: ++: potency > 10x CCh; +: potency 2-10x CCh; +/−: potency 0.5-2x CCh; −: potency < 0.5-0.1x CCh; −−: potency < 0.1x CCh; inactive: potency too low to determine)”.
Consider `c1nsc(C2CCCNC2)n1` (stereo not drawn) [Compound 12b, 5-(piperidin-3-yl)-1,2,4-thiadiazole], for which, in series [1], the “huM1/A9L ED50 relative to CCh” value is “− (key: ++: potency > 10x CCh; +: potency 2-10x CCh; +/−: potency 0.5-2x CCh; −: potency < 0.5-0.1x CCh; −−: potency < 0.1x CCh; inactive: potency too low to determine)”. Moreover, the “huM3/A9L ED50 relative to CCh” value in series [2] is “−− (key: ++: potency > 10x CCh; +: potency 2-10x CCh; +/−: potency 0.5-2x CCh; −: potency < 0.5-0.1x CCh; −−: potency < 0.1x CCh; inactive: potency too low to determine)”.
As for `Cc1noc([C@H]2CCCN[C@@H]2C)n1` [Compound 19], the “huM1/A9L Smax” value in series [1] turned out to be 15%. The “huM3/A9L Smax” value in series [2] was found to be 34%.
Take `Cc1noc([C@H]2CCCN[C@@H]2C)n1` [Compound 20]: the “huM1/A9L Smax” value in series [1] is given as 9%.
As to `Cc1noc([C@H]2CCCN[C@@H]2C)n1` [Compound 21], the “huM1/A9L Smax” value in series [1] came to 18%. In addition, the “huM3/A9L Smax” value in series [2] came to 14%.
As to `Cc1noc([C@H]2CCCN[C@@H]2C)n1` [Compound 22], the “huM1/A9L Smax” value in series [1] was 7%. Moreover, the “huM3/A9L Smax” value in series [2] is 15%.
Take `Cc1noc([C@H]2CCCN[C@@H]2C)n1` [Compound 23]: the “huM1/A9L Smax” value in series [1] stood at 23%. Further, in series [2], the “huM3/A9L Smax” value is reported as 19%.
On to `Cc1noc([C@H]2CCCN[C@@H]2C)n1` [Compound 24], for which, in series [1], the “huM1/A9L ED50 relative to CCh” value was “−− (key: ++: potency > 10x CCh; +: potency 2-10x CCh; +/−: potency 0.5-2x CCh; −: potency < 0.5-0.1x CCh; −−: potency < 0.1x CCh; inactive: potency too low to determine)” and the “huM1/A9L Smax” value is on record as 41%. Also, the “huM3/A9L Smax” value in series [2] amounted to 32%.
For `Nc1noc(C2CCCNC2)n1` (stereo not drawn) [Compound 27, 3-Amino-5-(piperidin-3-yl)-1,2,4-oxadiazole], the “huM1/A9L ED50 relative to CCh” value in series [1] is “+ (key: ++: potency > 10x CCh; +: potency 2-10x CCh; +/−: potency 0.5-2x CCh; −: potency < 0.5-0.1x CCh; −−: potency < 0.1x CCh; inactive: potency too low to determine)”. In addition, the “huM3/A9L ED50 relative to CCh” value in series [2] was “+/− (key: ++: potency > 10x CCh; +: potency 2-10x CCh; +/−: potency 0.5-2x CCh; −: potency < 0.5-0.1x CCh; −−: potency < 0.1x CCh; inactive: potency too low to determine)”.
`Cc1noc(C2CCNC2)n1` (stereo not drawn) [Compound 31, 3-methyl-5-(pyrrolidin-3-yl)-1,2,4-oxadiazole]: in series [2] (potency class relative to carbachol), the “huM3/A9L ED50 relative to CCh” value was “− (potency < 0.5-0.1x CCh)”.
For `Cl.[2H]C([2H])([2H])C([2H])([2H])c1noc(C2CN=CNC2)n1` (stereo not drawn) [compound 2, 3-(1,1,2,2,2-d5-ethyl)-5-(1,4,5,6-tetrahydropyrimidin-5-yl)-1,2,4-oxadiazole hydrochloride], on rat M1 receptors, the “Functional selectivity for M1 subtype by PI turnover” value is on record as “M1-subtype functionally selective muscarinic agonists”. Moreover, the “Brain Cmax (10 mg/kg po) 1 hr MCD-386 = 1.00” value in series [4] (rat brain, 10 mg/kg po, 1 hr, relative to MCD-386) is 0.61. Moreover, the “Penetration into the brain” value in series [4] (rats after oral dosing) is recorded as “penetrated into the brain”.
